Measurements reported in PMC10515483, “Structure–Reactivity Studies of 2-Sulfonylpyrimidines Allow Selective Protein Arylation” (Bioconjugate Chemistry, 2023).

Assay: NACME arylation rate constant (NMR)
Type: physicochemical
Excerpt: We employed nuclear magnetic resonance (NMR) and UV–vis to quantify the reactivity of our 2-SP derivatives and other representative electrophiles (Figure 2) against cysteine. NMR allowed straightforward determination of reaction rate constants through dual monitoring of the consumption of the warhead and formation of the product by integration of their respective NMR signals (Figures S1–S3). It simultaneously provided a direct readout on reaction specificity and hydrolytic stability of the warhead. All measurements were carried out in KPi buffer in the presence of 5% d^6-dmso, which is generally well-tolerated by a wide range of proteins in in vitro studies. N-acetylcysteine methylester (NACME) and L-glutathione (GSH) are useful model cysteine nucleophiles for in vitro studies of electrophilic agents.[32] Mixing reference electrophile 2-methylsulfonylpyrimidine (4q) with NACME or GSH in a 1:10 ratio (pseudo-first-order conditions) allowed extraction of accurate and reproducible second order rate constants (k). At pH 7.0, quantitative arylation of NACME occurred […] (k ≈ 4.5 × 10^–2 M^–1 s^–1), whereas GSH reacted approximately 3 times slower (k ≈ 1.6 × 10^–2 M^–1 s^–1; Figures S1–S3). […]
transferred to the NMR instrument for acquisition. 1H spectra (16 scans) were recorded every 10 minutes under water suppression conditions. Following acquisition, spectra were analysed using […]

For `CS(=O)(=O)c1ncccn1` [4q, 2-methylsulfonylpyrimidine], the “times faster at pH 7.0 vs 6.5” value (NACME) was “approximately 5 times” and the “second order rate constant k with NACME” value (pH 7.0, 1:10 ratio) was “≈ 4.5 × 10^–2 M^–1 s^–1”.
